Experiment [1] concerns HeLa cells. The experiment in a line: Cell-based colony survival assay with MMS. Details: species or system human. As to conditions: HeLa colony formation, 0.25 mM MMS, 1 or 5 µM inhibitor. How it is done:
To measure colony survival, HeLa cells were plated in 6-well plates 12–20 hr prior to treatment. Cells were treated as follows: (i) exposed only to control medium, (ii) exposed to 0.25 mM MMS alone for 1 hr, (iii) exposed to 1 or 5 µM of the indicated inhibitor compound alone for 4 hr, or (iii) exposed to inhibitor compound alone for 3 hr and then with MMS for an additional 1 hr at 37°C. Following treatment, cells were washed once with 1× PBS and incubated in regular maintenance media (DMEM, 10% FBS) at 37°C for 10–15 days. Colonies formed were fixed in methanol, stained in methylene blue (Sigma), and counted to determine percent survival relative to the untreated controls.

Experiment [2] has as its system HeLa cells. The experiment in a line: AP site measurement in chromosomal DNA. Format: cell-based, human. How it is done:
HeLa cells were treated as above, except only at 5 µM inhibitor where indicated. Following exposure, chromosomal DNA was isolated and steady-state AP site levels were measured using the DNA Damage Quantification Kit from Dojindo Molecular Technologies, Inc. (Gaithersburg, MD) as previously described.

Experiment [3] deals with T1, E. coli EndoIV (Escherichia coli, UniProt P0A6C1).
T1 construct: made in house
As to the kind of experiment: E. coli Endonuclease IV (EndoIV) profiling assay. The experiment is classed as biochemical. The method, then:
EndoIV enzyme and substrate (same as that used with APE1) optimization tests were initially performed at a 40 µL final volume in a 384-well format. Reaction concentrations of 2 nM EndoIV and 50 nM DNA substrate were selected for subsequent experiments. For running the assay in 1536-well format, the same protocol as described for APE1 above was followed.

In experiment [4] the target is T2, APE1 (Homo sapiens, UniProt P27695).
T2 construct: made in house
As to the kind of experiment: qHTS fluorogenic AP site incision assay (TAMRA/BHQ-2 red substrate, 1536-well). Format: biochemical. How it is done: Recombinant human APE1 and E. coli EndoIV were purified as previously described. Deoxyoligonucleotides containing a tetrahydrofuran (THF) AP site analog, carboxytetramethyl rhodamine (TAMRA), or Black Hole Quencher-2 (BHQ-2), as appropriate (see Figure 1), were purchased from Biosearch Technologies, Inc., (Novato, CA). To create double-stranded DNA substrates, equal volumes of 200 µM solutions of the respective strands in reaction buffer were mixed and incubated at 95°C for 5 min. The annealing mixture was allowed to cool gradually to room temperature. Annealing and assay experiments were performed in the following buffer: 50 mM Tris pH 7.5, 25 mM NaCl, 2 mM MgCl2, 1 mM DTT, 0.01% Tween-20.
Initial optimizations were carried out in 384-well format at a 40 µL total reaction volume. Briefly, 30 µL of APE1 were pipetted into the plate and incubated at room temperature for 10 min; subsequently, 10 µL of substrate were added to start the reaction. The final assay concentrations of the enzyme and substrate were 0.75 nM and 50 nM, respectively. Kinetic fluorescence data were collected on a ViewLux high-throughput CCD imager (Perkin Elmer, Waltham, MA) equipped with standard FITC (excitation filter 480 nm and emission filter 530 nm) or BODIPY (excitation filter 525 nm and emission filter 598 nm) optics.
Three µl of reagents (buffer in columns 3 and 4 as negative control and APE1 in columns 1, 2, 5–48) were dispensed into a 1536-well plate. Compounds (DMSO solutions) and control (DMSO only) (23 nL) were transferred via Kalypsys pintool equipped with 1536-pin array. The plate was incubated for 15 min at room temperature, and then 1 µL of substrate (50 nM final concentration) was added to start the reaction. Library plates were screened from the lowest to highest concentration.
Screening data were corrected and normalized, and concentration–effect relationships were derived by using in-house developed, publicly available algorithms (http://www.ncgc.nih.gov/pub/openhts/curvefit/). Percent activity was computed after normalization against the uninhibited, or neutral, control (64 wells, entire columns 1 and 2) and the no-enzyme, or 100% inhibited, control (64 wells, entire columns 3 and 4), respectively. A four parameter Hill equation was fitted to the concentration-response data by minimizing the residual error between the modeled and observed responses.
A general note: Quantitative high-throughput screening tests each substance at several concentrations.

The target of experiment [5] is unlabeled double-stranded DNA substrate. As to the kind of experiment: ThO dye-displacement assay (DNA binding). As to conditions: for IC50: 50 nM DNA, 250 nM ThO; for ThO displacement (in words): LOPAC dose-response profiling.
In experiment [6] the test system is AP site cleavage activity of HeLa whole cell extract. The experiment in a line: Whole cell extract AP endonuclease activity assay (HeLa). The experiment is classed as biochemical, human. As to conditions: inhibitor at 100 µM. The method, then:
(§1) The radiotracer assay was performed essentially as described. In brief, prioritized candidate inhibitor compounds from the qHTS assay were incubated at various concentrations (100 µM data shown) with APE1 (100 pg) at room temperature for 15 min in 25 mM Tris pH 7.5, 25 mM NaCl, 1 mM MgCl2, 1 mM DTT and 0.01% Tween-20. At that time, 0.5 pmol ^32P-radiolabeled THF-containing 34 mer double-stranded DNA substrate was added. Incision reactions were then carried out immediately at 37°C for 10 min in a final volume of 10 µL. After the addition of an equal volume of stop buffer (0.05% bromophenol blue and xylene cynol, 20 mM EDTA, 95% formamide), the radiolabeled substrate and product were separated on a standard polyacrylamide denaturing gel and quantified by phosphorimager analysis.
(§2) HEK 293T or HeLa cells – maintained in DMEM with 10% fetal bovine serum and 1% Penicillin-Streptomycin – were harvested, washed with 1× PBS, re-suspended in cold 222 mM KCl, incubated on ice for 30 min, and clarified by centrifugation at 12,000×g for 15 min at 4°C [23]. The supernatant (whole cell extract) was retained, the protein concentration determined using the Bio-Rad Bradford reagent, and aliquots were stored at −80°C. AP endonuclease activity assays were performed with or without candidate inhibitor compounds as described above, except 60 ng HEK 293T or 80 ng of HeLa whole cell extract was used.

Experiment [7] concerns AP site cleavage activity of HEK 293T whole cell extract. As to the kind of experiment: Whole cell extract AP endonuclease activity assay (HEK 293T). Format: biochemical, human. As to conditions: inhibitor at 100 µM. The method, then:
as §1, §2

The target of experiment [8] is T2, APE1. The experiment in a line: Radiotracer (32P, gel-based) incision assay. Format: biochemical. As to conditions: for Gel: inhibition detected or not in radiotracer incision assay: APE1, 32P-labeled THF substrate.
Where [9] appears, read: 2 nM EndoIV, 50 nM substrate, read-out: Endo IV IC50 (E. coli EndoIV profiling).
Setting [10] is: 50 nM substrate, 0.75 nM APE1, read-out: qHTS IC50 (primary screen, APE1).
[11] abbreviates: range of inhibitor concentrations, data not shown, read-out: approximate IC50 in radiotracer assay.

By IC50 is commonly meant the concentration needed to halve the response being measured.

Each structure is given as a SMILES string. Where two headings read alike, the source gives them in different places. Some results are limits rather than exact numbers.

T2 sequence (P27695 whole entry): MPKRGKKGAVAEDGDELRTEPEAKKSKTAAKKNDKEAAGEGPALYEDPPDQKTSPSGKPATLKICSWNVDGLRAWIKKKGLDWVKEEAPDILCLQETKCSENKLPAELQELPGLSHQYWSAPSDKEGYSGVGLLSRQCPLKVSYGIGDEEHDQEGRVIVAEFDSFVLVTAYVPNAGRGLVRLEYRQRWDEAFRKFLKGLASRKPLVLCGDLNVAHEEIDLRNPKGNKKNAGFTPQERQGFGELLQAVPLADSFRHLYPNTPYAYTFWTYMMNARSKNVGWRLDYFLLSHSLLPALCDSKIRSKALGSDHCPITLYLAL

As for `NC(Cc1cc(O)c(O)cc1O)C(=O)O` (racemic) [6-hydroxy-DL DOPA, 6-hydroxy-DL-DOPA], the “percent cell killing, MMS plus inhibitor relative to alkylator or inhibitor alone” value in experiment [1] was “greater than additive increase”. Further, the “AP site damage, inhibitor alone” value in experiment [2] (5 µM inhibitor alone, relative to control cells) was “increased AP site damage relative to the control cells”. For the same compound, the “AP site damage, inhibitor plus MMS” value in experiment [2] (5 µM inhibitor plus MMS) is listed as “potentiated the genotoxic potential of MMS”. The IC50 in experiment [3] is 10 µM; in experiment [4], 110 nM; in experiment [5], 7.9 µM; in experiment [8], less than 500 nM. Besides, the “activity against EndoIV compared with APE1 (in words)” value in experiment [3] is “completely inactive or weakly active”. Besides, the “inhibition of total AP site cleavage activity” value in experiment [6] and in experiment [7] was “complete inhibition” each time. For the same compound, in experiment [8], the “Gel: inhibition detected or not in radiotracer incision assay” value (shortened to “Gel: inhibition detected or not”) is given as “Yes”.
With `CC(=O)OCC1=C(C(=O)O)N2C(=O)[C@@H](NC(=O)CSc3ccncc3)[C@H]2SC1` [cephapirin sodium], the “activity against EndoIV compared with APE1 (in words)” value in experiment [3] is “similarly potent against each endonuclease”. For the same compound, the IC50 in experiment [3] (setting [9]) was 16 µM; in experiment [4] (setting [10]) it was 8900 nM; in experiment [5] it was greater than 57 µM; in experiment [8] (setting [11]) it was greater than 50000 nM. In addition, in experiment [8], the “Gel: inhibition detected or not” value is recorded as “No”.
Turning to `Cn1cc(NC(=O)c2cc(NC(=O)c3cc(NC=O)cn3C)cn2C)cc1C(=O)NCCC(=N)N` [distamycin], the “ThO displacement (in words)” value in experiment [5] is on record as “strong displacement activity”.
`O=C(O)C1=CC(=C(c2ccc(O)c(C(=O)O)c2)c2ccc(O)c(C(=O)O)c2)C=CC1=O` [aurintricarboxylic acid]: the “activity against EndoIV compared with APE1 (in words)” value in experiment [3] is “completely inactive or weakly active”. For the same compound, the IC50 in experiment [3] (setting [9]) turned out to be 25 µM; in experiment [4] (setting [10]), 55 nM; in experiment [5] it was 1.3 µM. Besides, the “APE1 inhibition in fluorogenic assay (in words)” value in experiment [4] is “low nanomolar range”. Besides, the “Gel: inhibition detected or not” value in experiment [8] is recorded as “Yes”.
Consider `CC(=O)[C@]1(O)Cc2c(O)c3c(c(O)c2[C@@H](O[C@H]2C[C@H](N)[C@H](O)[C@H](C)O2)C1)C(=O)c1ccccc1C3=O` [idarubicin], for which the “ThO displacement (in words)” value in experiment [5] is reported as “strong ThO displacement profiles”.
`Cc1nc(N=Nc2cc(S(=O)(=O)O)c3cc([N+](=O)[O-])cc(S(=O)(=O)O)c3c2)c(COP(=O)(O)O)c(C=O)c1O` [PPNDS tetrasodium]: the IC50 in experiment [3] (setting [9]) is 16 µM; in experiment [4] (setting [10]) it was 2800 nM; in experiment [5], 10 µM; in experiment [8] (setting [11]), greater than 50000 nM. In experiment [8], the “Gel: inhibition detected or not” value is “No”.
As to `N#C/C(=C\c1ccc(O)c(O)c1)C(=O)c1ccc(O)c(O)c1` [Tyrphostin AG 538], the “activity against EndoIV compared with APE1 (in words)” value in experiment [3] was “similarly potent against each endonuclease”. The concentration for half-maximal inhibition (IC50) in experiment [3] (setting [9]) was 0.28 µM; in experiment [4] (setting [10]), 280 nM; in experiment [5], 20 µM; in experiment [8] (setting [11]), 500 to 2000 nM. Also, in experiment [5], the “ThO displacement (in words)” value is on record as “weak or no displacement activity”. The “inhibition of total AP site cleavage activity” value in experiment [6] and in experiment [7] was “mild inhibition” each time. For the same compound, in experiment [8], the “Gel: inhibition detected or not” value is given as “Yes”.
Turning to `CO/N=C(\C(=O)N[C@@H]1C(=O)N2C(C(=O)O)=C(CSc3nc(=O)c(=O)[nH]n3C)CS[C@H]12)c1csc(N)n1` [ceftriaxone sodium], the IC50 in experiment [3] (setting [9]) was 11 µM; in experiment [4] (setting [10]), 2200 nM; in experiment [5] it was greater than 57 µM; in experiment [8] (setting [11]), greater than 50000 nM. The “Gel: inhibition detected or not” value in experiment [8] is recorded as “No”.
As for `C=C/C(C)=C/[C@@]1(C)SC(=O)C(C)=C1O` [thiolactomycin], the “activity against EndoIV compared with APE1 (in words)” value in experiment [3] is “completely inactive or weakly active”. Moreover, the IC50 in experiment [3] (setting [9]) was 20 µM; in experiment [4] (setting [10]), 1000 nM; in experiment [5], greater than 57 µM; in experiment [8] (setting [11]), 500 to 2000 nM. In addition, the figures for the “ThO displacement (in words)” value in experiment [5] and in experiment [5] (listed as Thiolactomycin) were “weak or no displacement activity” and “does not affect ThO displacement”, respectively. Also, the “inhibition of total AP site cleavage activity” value in experiment [6] and in experiment [7] was “no effect” in each case. For the same compound, in experiment [8], the “Gel: inhibition detected or not” value is given as “Yes”.
As to `O=C1c2c(O)ccc(O)c2C(=O)c2c(NCCNCCO)ccc(NCCNCCO)c21` [mitoxantrone], in experiment [3], the “activity against EndoIV compared with APE1 (in words)” value was “similarly potent against each endonuclease”. Besides, the half-maximal inhibitory concentration (IC50) in experiment [3] (setting [9]) was 2 µM; in experiment [4] (setting [10]) it was 2000 nM; in experiment [5], 0.35 µM; in experiment [8] (setting [11]), less than 500 nM. Moreover, the “ThO displacement (in words)” value in experiment [5] was “positive”. Moreover, the “Gel: inhibition detected or not” value in experiment [8] is “Yes”.
Take `COc1cccc2c1C(=O)c1c(O)c3c(c(O)c1C2=O)C[C@@](O)(C(=O)CO)C[C@@H]3O[C@H]1C[C@H](N)[C@H](O)[C@H](C)O1` [doxorubicin]: the “ThO displacement (in words)” value in experiment [5] was “strong ThO displacement profiles”.
Regarding `CN(N=O)c1ccc(O)c(O)c1` [methyl 3,4-dephostatin, methyl-3,4-dephostatin], in experiment [3], the “activity against EndoIV compared with APE1 (in words)” value is “completely inactive or weakly active”. The IC50 was 8.9 µM in experiment [3] (setting [9]), 500 nM in experiment [4] (setting [10]), 14 µM in experiment [5] and 500 to 2000 nM in experiment [8] (setting [11]). The “inhibition of total AP site cleavage activity” value in experiment [6] and in experiment [7] was “no effect” each time. Moreover, the “Gel: inhibition detected or not” value in experiment [8] is recorded as “Yes”.
